Literature values as cited in patent US20130146496A1, “SOLID PHARMACEUTICAL FORMULATIONS OF RAMIPRIL AND AMLODIPINE BESYLATE, AND THEIR PREPARATION” (priority 2010, published 2013).

Legend:
[1] = in vivo

In the case of `CCOC(=O)C1=C(COCCN)NC(C)=C(C(=O)OC)C1c1ccccc1Cl` (racemic) [Amlodipine besylate, 3-ethyl-5-methyl-(+-)-2-[(2-aminoethoxy)methyl]-4-(2-chlorophenyl)-1,4-dihydro-6-methylpyridine-3,5-dicarboxylate], the absolute bioavailability [1] is listed as 64-90% and the solubility in water is listed as “slightly soluble”.
